Assay results published in the NIST ThermoML archive (doi:10.1021/je400562z).

Conditions: for surface tension liquid-gas: Ring tensiometer; for mass density / viscosity: 101.33 kPa, Liquid; for viscosity: Concentric cylinders viscometry

CN(CCO)CCO [N-methyldiethanolamine]
Conditions	mass density [kg/m3]	surface tension liquid-gas [mN/m]	viscosity [mPa·s]
303.15 K	1033.8	37.33	56.3
313.15 K	1026.7	–	34.45
323.15 K	1018.9	–	22.93
333.15 K	–	35.47	14.99
